Among the data in publication PMC7810988, “Inositol pyrophosphates promote the interaction of SPX domains with the coiled-coil motif of PHR transcription factors to regulate plant phosphate homeostasis” (Nature Communications, 2021) are KD and Kd values, retold here.

Common to all, as to type: binding
Test [1] deals with T1, AtPHR1^280–360 (Arabidopsis thaliana, UniProt Q94CL7, K325A/H328A/R335A).
T1 construct: gene PHR1; coiled-coil domain fragment, residues 280-360, 6xHis tag cleaved by TEV, 15N,2H-labeled, E. coli
T1 sequence (Q94CL7 280-360 K325A/H328A/R335A): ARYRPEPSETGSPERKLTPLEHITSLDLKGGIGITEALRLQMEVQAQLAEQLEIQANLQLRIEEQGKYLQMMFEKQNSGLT
Description: […] TROSY NMR titration. The note with it: 25 mM HEPES pH 7.0, 200 mM NaCl, 0.5 mM TCEP, 30 °C.

For test [2], the target named is T2, AtPHR1^280–360 (Arabidopsis thaliana, UniProt Q94CL7).
T2 construct: gene PHR1; coiled-coil domain fragment, residues 280-360, 6xHis tag cleaved by TEV, 15N,2H-labeled, E. coli
T2 sequence (Q94CL7 280-360): as the sequence (Q94CL7 280-360 K325A/H328A/R335A) above, with A46K, A49H, A56R counted along it
Kind of test: […] TROSY NMR titration. The note with it: 25 mM HEPES pH 7.0, 200 mM NaCl, 0.5 mM TCEP, 30 °C.

Test [3] deals with T3, OsSPX4–OsPHR2 (Oryza sativa, UniProt Q10B79).
T3 construct: gene SPX4; OsSPX4 1-321 (cloning sentence prints OsSPX2 1-321, purification OsSPX4 1-321; His-Strep-Sumo tag cleaved) with full-length OsPHR2 1-426 (His-Strep-GB1 tag, TEV cleaved); E. coli; with Protein PHOSPHATE STARVATION RESPONSE 2
T3 sequence (Q10B79 whole entry): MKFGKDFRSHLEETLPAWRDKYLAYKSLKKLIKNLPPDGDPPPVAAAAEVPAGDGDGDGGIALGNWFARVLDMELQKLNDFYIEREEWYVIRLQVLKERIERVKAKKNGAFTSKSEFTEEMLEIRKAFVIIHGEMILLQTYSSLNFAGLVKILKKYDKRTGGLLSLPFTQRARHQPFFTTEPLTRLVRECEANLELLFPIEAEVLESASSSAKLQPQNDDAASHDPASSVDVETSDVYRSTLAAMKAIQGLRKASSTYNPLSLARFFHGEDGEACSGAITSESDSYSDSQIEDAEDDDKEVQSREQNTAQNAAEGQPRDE
T3 sequence (Q6Z156 whole entry partner): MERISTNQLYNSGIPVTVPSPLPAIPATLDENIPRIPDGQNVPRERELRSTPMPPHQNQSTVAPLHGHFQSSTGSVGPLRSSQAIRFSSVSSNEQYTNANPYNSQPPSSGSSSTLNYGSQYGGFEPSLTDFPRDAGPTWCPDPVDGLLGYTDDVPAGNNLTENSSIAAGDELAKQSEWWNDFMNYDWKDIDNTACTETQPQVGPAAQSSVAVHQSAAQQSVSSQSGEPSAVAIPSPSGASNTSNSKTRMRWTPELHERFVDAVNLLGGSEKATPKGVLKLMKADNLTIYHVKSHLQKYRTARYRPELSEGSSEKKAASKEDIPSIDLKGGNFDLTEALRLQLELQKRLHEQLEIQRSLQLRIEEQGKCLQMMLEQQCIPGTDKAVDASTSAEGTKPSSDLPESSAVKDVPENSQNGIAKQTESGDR
Kind of test: isothermal titration calorimetry.

pKd: −log10 of the molar value.

Take `O=P(O)(O)O[C@@H]1[C@@H](OP(=O)(O)O)[C@H](OP(=O)(O)OP(=O)(O)O)[C@@H](OP(=O)(O)O)[C@H](OP(=O)(O)OP(=O)(O)O)[C@@H]1OP(=O)(O)O` [InsP8]: the KD result was “repeated the same set of experiments using the AtPHR1^KHR/A mutant protein” in test [1]; “The derived dissociation constant is in the millimolar range and saturation could not be reached” in test [2]. Moreover, the pKd in test [3] was around 5.52.

For the compound `O=P(O)(O)O[C@H]1[C@@H](OP(=O)(O)O)[C@H](OP(=O)(O)O)[C@@H](OP(=O)(O)OP(=O)(O)O)[C@H](OP(=O)(O)O)[C@H]1OP(=O)(O)O` [InsP7], in test [3], the pKd is around 5.15.
